Several values for one entry are separate records, joined by “and”; a condition that tells them apart may be missing. Equal entries are not always repeated. Where two headings read alike, the source gives them in different places.
How the values were obtained:
[1] = tested on: control cell lines expressing lacZ; assay: Kinetics of cell death: toxicity of CMDA test concentrations to control cells; assay type: cell-based, human; details: 2 mM CMDA (WiDr, SK-OV-3) or 1 mM CMDA (A2780)
Description: To determine exposure times to CMDA required for the death of 50% of the cell populations, cell lines were plated at 3×10^5 cells per well in 6-well tissue culture plates, and allowed to grow to confluence. Tissue culture medium was replaced with 1 ml DMEM/FCS containing 2 mM CMDA (for WiDr and SK-OV-3 cell lines) or 1 mM CMDA (for A2780 cell lines). These concentrations are not toxic to control cell lines expressing lacZ. After 0.5, 1, 2, 4, 8, 12, and 16 h exposure, cells were trypsinized and approximately 3% were replated. After a further 4 d growth, cell survival was determined by [^3H]-thymidine incorporation (0.4 μCi/ml, 6h).

[2] = patients, ADEPT trial; cited from earlier work
A2780 cells [3] = details: A2780 clone expressing CPG2*, previous study; read-out: IC50 for CMDA; cited from earlier work
WiDr cells [4] = details: WiDr clone expressing CPG2*, previous study; read-out: IC50 for CMDA; cited from earlier work
SK-OV-3 cells [5] = details: SK-OV-3 clone expressing CPG2* (1.013 U/mg), previous study; read-out: IC50 for CMDA; cited from earlier work
SK-OV-3 cells [6] = assay: Cytotoxicity of CMDA, [3H]-thymidine incorporation; assay type: cell-based, human
Description: (§1) Cytotoxicity and bystander cytotoxicity assays were performed as described previously (Marais et al (1996) Cancer Res. 56, 4735-4742). Briefly, for cytotoxicity assays, cells were grown to confluence and treated twice, once for an hour, immediately followed by an 18 h treatment, using increasing amounts of CMDA prodrug in DMEM/FCS. Cells were trypsinized and approximately 3% were replated and allowed to grow for a further 4 days, when uptake of [^3H]-thymidine was used to infer survival. For bystander assays, mixtures of cells expressing stCPG2(Q)3 and cells of the same lineage expressing β-galactosidase were treated with a single concentration of CMDA in the same two-stage treatment protocol, using 2 mM CMDA for WiDr and SK-OV-3 cells and 1 mM CMDA for A2780 cells.

WiDr cells [7] = assay: Cytotoxicity of CMDA, [3H]-thymidine incorporation; assay type: cell-based, human
Description: as §1

A2780 cells [8] = assay: Cytotoxicity of CMDA, [3H]-thymidine incorporation; assay type: cell-based, human
Description: as §1

[9] = Enzyme kinetic studies of CPG2-derived enzymes in detergent soluble cell extracts, MTX as substrate; assay type: biochemical
Text: Detergent soluble cell extracts, and enzyme kinetic analyses have been described previously (Marais et al (1996) Cancer Res. 56, 4735-4742; Marais et al (1997) Nature Biotech. 15, 1373-1377).

[10] = previous study, cited from earlier work
[11] = CPG2 enzyme activity in detergent soluble extracts of stably expressing clones, MTX as substrate; assay type: biochemical; details: for CPG2 activity (U/mg): U/mg detergent soluble protein, clone as in label
Text: All mammalian cell lines were maintained in Dulbecco's Modified Eagle's Medium supplemented with 10% foetal calf serum (DMEM/FCS). For this study, the human colorectal carcinoma cell line WiDr (Noguchi et al (1979) In Vitro. 15, 401-408, and the human ovarian carcinoma cell lines SK-OV-3 (Hill et al. (1987) 39, 219-225) and A2780 (Louie et al. (1985) Cancer Res. 45, 2110-2115) were separately transfected with the plasmid pMCEFstcpg2(Q)3 (Marais et al (1997) Nature Biotech. 15, 1373-1377) and G418-resistant colonies were selected by limiting dilution. Detergent soluble extracts were incubated with methotrexate, a good carboxypeptidase G2 substrate. Rate of change of absorbance at 320 nm was measured to identify those colonies able to degrade MTX and therefore likely to express stCPG2(Q)3. Expression of stCPG2(Q)3 was confirmed by immunoblotting these detergent soluble extracts using a rabbit polyclonal serum specific for CPG2 (Marais et al (1996) Cancer Res. 56, 4735-4742; Marais et al (1997) Nature Biotech. 15, 1373-1377). Cell lines constitutively expressing β-galactosidase or CPG2* have been described (Marais et al (1996) Cancer Res. 56, 4735-4742; Marais et al (1997) Nature Biotech. 15, 1373-1377).
In order to conduct these studies, we engineered WiDr (human colorectal adenocarcinoma), SK-OV-3 and A2780 (both human ovarian tumour lines) cells for stable expression of stCPG2(Q)3. The presence of stCPG2(Q)3 was verified by immunoprotein blotting (data not shown) and the levels of enzyme activity in these clones were determined using MTX as substrate (Table 2). For each line two or three clones were examined. The SK-OV-3 clones expressed the lowest levels of CPG2 activity (0.016 and 0.023 U/mg protein) followed by the A2780 clones (0.06 and 0.067 U/mg), with WiDr clones expressing the highest level of CPG2 activity (0.177 and 0.226 U/mg) (Table 2).

[12] = target: the molecule itself; assay: non-reducing SDS-PAGE of COS cell extracts (homodimer)
Description: We first determined why the asparagine to glutamine mutations that blocked glycosylation reduced CPG2s enzyme activity. […] We next tested each position independently.

## CS(=O)(=O)OCCN(CCCl)c1ccc(C(=O)N[C@@H](CCC(=O)O)C(=O)O)cc1 [CMDA, N-4-[(2-chloroethyl) (2-mesyloxyethyl)amino]benzoyl-L-glutamic acid]
[1]
  toxicity to control cell lines expressing lacZ: not toxic
[2]
  peak CMDA concentration in sera: approximately 3 mM
A2780 cells [3]
  IC50: 23.2 µM
WiDr cells [4]
  IC50: 277 µM
SK-OV-3 cells [5]
  IC50: 258 µM
SK-OV-3 cells [6]; SK-OV-3 clone S2.34 CPG2* versus lacZ
  Differential cytotoxicity (fold): 3.2 fold
SK-OV-3 cells [6]; SK-OV-3 clone S2.34 expressing CPG2*, read-out: IC50 (μM CMDA)
  IC50: 1290 µM
SK-OV-3 cells [6]; SK-OV-3 clone S2.4 CPG2* versus lacZ
  Differential cytotoxicity (fold): 1.3 fold
SK-OV-3 cells [6]; SK-OV-3 clone S2.4 expressing CPG2*, read-out: IC50 (μM CMDA)
  IC50: 3200 µM
SK-OV-3 cells [6]; SK-OV-3 clone S5 expressing stCPG2(Q)3, read-out: IC50 (μM CMDA)
  IC50: 216 µM
SK-OV-3 cells [6]; SK-OV-3 clone S5 stCPG2(Q)3 versus lacZ
  Differential cytotoxicity (fold): 19.4 fold
SK-OV-3 cells [6]; SK-OV-3 clone S6 expressing stCPG2(Q)3, read-out: IC50 (μM CMDA)
  IC50: 479 µM
SK-OV-3 cells [6]; SK-OV-3 clone S6 stCPG2(Q)3 versus lacZ
  Differential cytotoxicity (fold): 8.7 fold
SK-OV-3 cells [6]; SK-OV-3 clone S7 expressing stCPG2(Q)3, read-out: IC50 (μM CMDA)
  IC50: 544 µM
SK-OV-3 cells [6]; SK-OV-3 clone S7 stCPG2(Q)3 versus lacZ
  Differential cytotoxicity (fold): 7.7 fold
SK-OV-3 cells [6]; SK-OV-3 clones expressing stCPG2(Q)3
  increase in sensitivity compared to β-gal expressing cells: 7-20 fold
SK-OV-3 cells [6]; SK-OV-3 clones expressing stCPG2(Q)3, read-out: IC50 for CMDA
  IC50: 216 to 544 µM
SK-OV-3 cells [6]; SK-OV-3 expressing lacZ, read-out: IC50 (μM CMDA)
  IC50: 4180 µM
WiDr cells [7]; WiDr clone W3 stCPG2(Q)3 versus lacZ
  Differential cytotoxicity (fold): 32.3 fold
WiDr cells [7]; WiDr clone W4 stCPG2(Q)3 versus lacZ
  Differential cytotoxicity (fold): 22.0 fold
WiDr cells [7]; WiDr clones expressing stCPG2(Q)3, read-out: IC50 for CMDA
  IC50: 100 to 150 µM and 100 µM and 147 µM
WiDr cells [7]; WiDr expressing lacZ (β-gal), read-out: IC50 (μM CMDA)
  IC50: 3230 µM
A2780 cells [8]; A2780 clone A3 expressing stCPG2(Q)3
  IC50: 15.6 µM
A2780 cells [8]; A2780 clone A3 stCPG2(Q)3 versus lacZ
  Differential cytotoxicity (fold): 138 fold
A2780 cells [8]; A2780 clone A4 expressing stCPG2(Q)3
  IC50: 20.4 µM
A2780 cells [8]; A2780 clone A4 stCPG2(Q)3 versus lacZ
  Differential cytotoxicity (fold): 105 fold
A2780 cells [8]; A2780 clones expressing stCPG2(Q)3
  increase in sensitivity compared to β-gal expressing cells: > 100 fold
A2780 cells [8]; A2780 expressing lacZ (β-gal)
  IC50: 2150 µM

B1: CPG2* (cytosolic carboxypeptidase G2 from Pseudomonas strain RS16) (enzyme)
chain: ALAQKRDNVLFQAATDEQPAVIKTLEKLVNIETGTGDAEGIAAAGNFLEAELKNLGFTVTRSKSAGLVVGDNIVGKIKGRGGKNLLLMSHMDTVYLKGILAKAPFRVEGDKAYGPGIADDKGGNAVILHTLKLLKEYGVRDYGTITVLFNTDEEKGSFGSRDLIQEEAKLADYVLSFEPTSAGDEKLSLGTSGIAYVQVNITGKASHAGAAPELGVNALVEASDLVLRTMNIDDKAKNLRFNWTIAKAGNVSNIIPASATLNADVRYARNEDFDAAMKTLEERAQQKKLPEADVKVIVTRGRPAFNAGEGGKKLVDKAVAYYKEAGGTLGVEERTGGGTDAAYAALSGKPVIESLGLPGFGYHSDKAEYVDISAIPRRLYMAARLIMDLGAGK
notes: Homodimer; also called COS/CPG2*
[9]; specific activity of COS/CPG2* (50 ng CPG2*) assigned as 100%
  Catalytic activity (%): 100%
[9]; substrate MTX, detergent soluble cell extract, read-out: Km (μM MTX)
  Km: 7.2 µM
[10]; A2780 clone expressing CPG2*
  CPG2 enzyme activity: 0.964 U/mg
[10]; SK-OV-3 clone expressing CPG2*
  CPG2 enzyme activity: 1.013 U/mg
[10]; WiDr clone expressing CPG2*
  CPG2 enzyme activity: 0.787 U/mg
[11]; A2780
  enzyme activity of CPG2* clone relative to stCPG2(Q)3 clones: ~15 times
[11]; listed as S2.34 CPG2*
  CPG2 activity (U/mg): 0.023 U/mg
[11]; listed as S2.4 CPG2*
  CPG2 activity (U/mg): 0.014 U/mg
[12]
  binding result: binds
